Laboratory results from patent US10766884B2 (Pfizer Inc., priority 2018, dated 2020).
Structures can show the parent of a compound that is named as a salt.

Key:
CDK4/Cyclin D1 = CDK4/Cyclin D1 (Homo sapiens (Human), UniProt P11802); experiment: CDK4/Cyclin D1 mobility shift assay; type: biochemical; conditions: activated CDK4/Cyclin D1, 3.5 mM ATP, Morrison fit; read-out: CDK4D1 Ki
CDK6/Cyclin D3 = CDK6/Cyclin D3 (Homo sapiens (Human), UniProt Q00534); experiment: CDK6/Cyclin D3 mobility shift assay; type: biochemical; conditions: activated CDK6/Cyclin D3, 3.5 mM ATP, Morrison fit; read-out: CDK6_D3 Ki
Sequence of CDK6/Cyclin D3 (Q00534 whole entry): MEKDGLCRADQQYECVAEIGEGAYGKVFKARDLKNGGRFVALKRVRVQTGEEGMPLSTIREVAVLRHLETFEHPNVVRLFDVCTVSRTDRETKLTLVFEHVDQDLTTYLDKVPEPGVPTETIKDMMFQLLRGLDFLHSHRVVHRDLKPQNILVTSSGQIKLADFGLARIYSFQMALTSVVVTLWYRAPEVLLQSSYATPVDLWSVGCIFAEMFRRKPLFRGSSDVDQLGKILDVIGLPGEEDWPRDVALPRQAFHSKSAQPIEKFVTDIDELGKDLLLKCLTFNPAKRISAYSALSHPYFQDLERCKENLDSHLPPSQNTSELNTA
Sequence of CDK6/Cyclin D3 (P30281 whole entry partner): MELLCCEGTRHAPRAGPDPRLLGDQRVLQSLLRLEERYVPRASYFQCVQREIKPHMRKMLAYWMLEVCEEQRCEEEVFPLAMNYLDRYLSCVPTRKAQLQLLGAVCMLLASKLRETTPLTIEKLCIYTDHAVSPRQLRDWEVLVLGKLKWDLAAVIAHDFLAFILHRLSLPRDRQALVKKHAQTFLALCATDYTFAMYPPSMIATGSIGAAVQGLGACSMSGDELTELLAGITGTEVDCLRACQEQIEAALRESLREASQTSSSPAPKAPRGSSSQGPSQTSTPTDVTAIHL

CDK4 = CDK4 (Homo sapiens (Human), UniProt P11802); experiment: Phospho-Serine 795 Rb ELISA assay in JEKO-1 cells; type: cell-based; conditions: overnight treatment, phospho-Rb S795, read-out: CDK4 pRB S795 ELISA JEKO-1 cells IC50
Sequence of CDK4 (P11802 2-303): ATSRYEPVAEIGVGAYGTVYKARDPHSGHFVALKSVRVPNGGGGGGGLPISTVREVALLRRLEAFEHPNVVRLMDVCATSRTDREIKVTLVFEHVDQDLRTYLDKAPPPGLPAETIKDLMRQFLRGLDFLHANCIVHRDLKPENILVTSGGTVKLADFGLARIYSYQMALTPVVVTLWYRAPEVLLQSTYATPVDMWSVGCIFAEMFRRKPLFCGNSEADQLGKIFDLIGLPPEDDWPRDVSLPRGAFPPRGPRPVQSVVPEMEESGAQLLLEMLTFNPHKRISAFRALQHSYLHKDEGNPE
Sequence of CDK4 (P24385 whole entry partner): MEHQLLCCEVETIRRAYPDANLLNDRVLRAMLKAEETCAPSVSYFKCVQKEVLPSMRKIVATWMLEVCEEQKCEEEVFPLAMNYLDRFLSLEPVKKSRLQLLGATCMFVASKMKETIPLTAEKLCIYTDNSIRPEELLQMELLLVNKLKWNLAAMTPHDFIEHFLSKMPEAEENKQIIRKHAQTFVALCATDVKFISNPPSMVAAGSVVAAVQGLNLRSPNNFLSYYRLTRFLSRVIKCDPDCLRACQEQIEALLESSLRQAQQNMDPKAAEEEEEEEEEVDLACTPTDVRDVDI

CDK6 = CDK6 (Homo sapiens (Human), UniProt Q00534); experiment: Phospho-Serine 795 Rb ELISA assay in MV4-11 cells; type: cell-based; conditions: overnight treatment, phospho-Rb S795, read-out: CDK6 pRB S795 ELISA MV4-11 cells IC50
Sequence of CDK6 (Q00534 whole entry): as the sequence (Q00534 whole entry) above
Sequence of CDK6 (P30281 whole entry partner): as the sequence (P30281 whole entry partner) above

Sequence of CDK4/Cyclin D1 (P11802 whole entry): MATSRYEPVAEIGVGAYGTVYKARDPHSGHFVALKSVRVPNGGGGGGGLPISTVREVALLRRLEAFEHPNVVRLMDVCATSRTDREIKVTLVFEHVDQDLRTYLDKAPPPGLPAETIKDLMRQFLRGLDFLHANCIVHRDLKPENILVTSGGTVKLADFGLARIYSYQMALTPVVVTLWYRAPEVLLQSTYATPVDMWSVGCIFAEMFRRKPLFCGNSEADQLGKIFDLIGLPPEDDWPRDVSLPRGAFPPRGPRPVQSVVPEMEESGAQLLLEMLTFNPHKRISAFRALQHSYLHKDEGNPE
Sequence of CDK4/Cyclin D1 (P24385 whole entry partner): as the sequence (P24385 whole entry partner) above

| Structure (SMILES) | Ki (CDK4/Cyclin D1) [µM] | Ki (CDK6/Cyclin D3) [µM] | IC50 (CDK4) [µM] | IC50 (CDK6) [µM] |
| --- | --- | --- | --- | --- |
| COC(=O)N1CC[C@@H](Nc2ncc(F)c(-c3cc(F)c4nc(C)n(C(C)C)c4c3)n2)[C@H](O)C1 [Example F01, methyl (3R,4R)-4-({5-fluoro-4-[4-fluoro-2-methyl-1-(propan-2-yl)-1H-benzimidazol-6-yl]pyrimidin-2-yl}amino)-3-hydroxypiperidine-1-carboxylate] | 0.0008 | 0.0146 | 0.114 | 0.576 |
| CC(=O)N1CC[C@@H](Nc2ncc(F)c(-c3cc(F)c4nc(C)n(C(C)C)c4c3)n2)[C@H](O)C1 [Example F16, 1-[(3R,4R)-4-({5-fluoro-4-[4-fluoro-2-methyl-1-(propan-2-yl)-1H-benzimidazol-6-yl]pyrimidin-2-yl}amino)-3-hydroxypiperidin-1-yl]ethan-1-one] | 0.0014 | 0.026 | 0.675 | 0.363 |
| Cc1nc2c(F)cc(-c3nc(N[C@@H]4CCN(C(=O)CO)C[C@H]4O)ncc3F)cc2n1C(C)C [Example F17, 1-[(3R,4R)-4-({5-fluoro-4-[4-fluoro-2-methyl-1-(propan-2-yl)-1H-benzimidazol-6-yl]pyrimidin-2-yl}amino)-3-hydroxypiperidin-1-yl]-2-hydroxyethan-1-one] | 0.0005 | 0.0083 | 0.0832 | 0.127 |
| CC(C)n1cnc2c(Cl)cc(-c3nc(N[C@@H]4CCN(C(=O)[C@@H](C)O)C[C@H]4O)ncc3Cl)cc21 [Example F20, (2R)-1-[(3R,4R)-4-({5-chloro-4-[4-chloro-1-(propan-2-yl)-1H-benzimidazol-6-yl]pyrimidin-2-yl}amino)-3-hydroxypiperidin-1-yl]-2-hydroxypropan-1-one] | 0.002 | 0.0243 | 0.155 | 0.787 |
| CC(C)(C)n1cnc2ccc(-c3cc(N[C@@H]4CCN(C(=O)CO)C[C@H]4O)ncc3Cl)nc21 [Example F22, 1-[(3R,4R)-4-{[4-(3-tert-butyl-3H-imidazo[4,5-b]pyridin-5-yl)-5-chloropyridin-2-yl]amino}-3-hydroxypiperidin-1-yl]-2-hydroxyethan-1-one] | 0.0005 | 0.0091 | 0.0613 | 0.171 |

Further compounds by falling Ki (CDK4/Cyclin D1), results first:

| Ki (CDK4/Cyclin D1) [µM] | Ki (CDK6/Cyclin D3) [µM] | IC50 (CDK4) [µM] | IC50 (CDK6) [µM] | Structure (SMILES) |
| --- | --- | --- | --- | --- |
| 0.0021 | 0.0258 | 0.248 | 0.478 | CC(C)(C)n1cnc2c(F)cc(-c3nc(N[C@@H]4CCN(CCO)C[C@H]4O)ncc3Cl)cc21 [Example F05, (3R,4R)-4-{[4-(1-tert-butyl-4-fluoro-1H-benzimidazol-6-yl)-5-chloropyrimidin-2-yl]amino}-1-(2-hydroxyethyl)piperidin-3-ol formic acid salt] |
| 0.0015 | 0.0278 | 0.161 | 0.134 | CN(C)CCN1CC[C@@H](Nc2ncc(Cl)c(-c3cc(F)c4ncn(C(C)(C)C)c4c3)n2)[C@H](O)C1 [Example F06, (3R,4R)-4-{[4-(1-tert-butyl-4-fluoro-1H-benzimidazol-6-yl)-5-chloropyrimidin-2-yl]amino}-1-[2-(dimethylamino)ethyl]piperidin-3-ol formic acid salt] |
| 0.0005 | 0.0115 | 0.108 | 0.311 | CCS(=O)(=O)N1CC[C@@H](Nc2ncc(Cl)c(-c3cc(F)c4nc(C)n(C5COC5)c4c3)n2)[C@H](O)C1 [Example F08, (3R,4R)-4-({5-chloro-4-[4-fluoro-2-methyl-1-(oxetan-3-yl)-1H-benzimidazol-6-yl]pyrimidin-2-yl}amino)-1-(ethanesulfonyl)piperidin-3-ol] |
| 0.0004 | 0.0077 | 0.0595 | 0.246 | C[C@H](O)C(=O)N1CC[C@@H](Nc2ncc(Cl)c(-c3cc(F)c4ncn(C(C)(C)C)c4c3)n2)[C@H](O)C1 [Example F21, (2S)-1-[(3R,4R)-4-{[4-(1-tert-butyl-4-fluoro-1H-benzimidazol-6-yl)-5-chloropyrimidin-2-yl]amino}-3-hydroxypiperidin-1-yl]-2-hydroxypropan-1-one] |
